Measurements published in ChEMBL document CHEMBL4373629, “Dual inhibitors of LSD1 and spermine oxidase” (Medchemcomm, 2019).
Active and inactive are the calls of the source. The rule behind the calls is not given here.

What was measured:
[1] = target: T1, MAOB (amine oxidase [flavin-containing] B) (Homo sapiens, UniProt P27338); assay: Inhibition of MAOB (unknown origin) using luminogenic substrate at 10 uM incubated for 1 hr by luminescence based assay relative to control; details: MAOB enzyme (unknown origin), probe luminogenic substrate
T1 sequence (P27338 whole entry): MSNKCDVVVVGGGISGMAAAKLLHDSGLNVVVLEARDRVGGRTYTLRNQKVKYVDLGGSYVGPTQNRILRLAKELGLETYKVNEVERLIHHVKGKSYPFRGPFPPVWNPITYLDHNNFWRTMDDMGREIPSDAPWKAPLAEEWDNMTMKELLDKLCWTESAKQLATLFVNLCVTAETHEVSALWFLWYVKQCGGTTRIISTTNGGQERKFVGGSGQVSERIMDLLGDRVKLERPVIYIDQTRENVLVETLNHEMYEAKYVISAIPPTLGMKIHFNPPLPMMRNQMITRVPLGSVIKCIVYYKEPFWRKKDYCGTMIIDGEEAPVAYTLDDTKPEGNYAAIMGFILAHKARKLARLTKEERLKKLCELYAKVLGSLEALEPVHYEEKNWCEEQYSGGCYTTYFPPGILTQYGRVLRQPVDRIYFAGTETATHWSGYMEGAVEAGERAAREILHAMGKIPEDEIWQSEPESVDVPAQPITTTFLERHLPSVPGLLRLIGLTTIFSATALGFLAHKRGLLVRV

[2] = target: T2, Spermine oxidase (Homo sapiens, UniProt Q9NWM0); assay: Inhibition of SMOX (unknown origin) assessed as decrease in spermidine formation using spermine as substrate treated with compound 2 mins prior to substrate addition followed by further incubation for 1 hr by HPLC analysis
[3] = target: T2, Spermine oxidase; assay: Inhibition of SMOX (unknown origin) assessed as decrease in spermidine formation using spermine as substrate at 10 uM treated with compound 2 mins prior to substrate addition followed by further incubation for 1 hr by HPLC analysis relative to control
[4] = target: Peroxisomal N(1)-acetyl-spermine/spermidine oxidase (Homo sapiens, UniProt Q6QHF9); assay: Inhibition of PAOX (unknown origin) assessed as decrease in spermidine formation using N-acetylspermine as substrate treated with compound 2 mins prior to substrate addition followed by further incubation for 1 hr by HPLC analysis
[5] = target: T3, Amine oxidase [flavin-containing] A (Homo sapiens, UniProt P21397); assay: Inhibition of MAOA (unknown origin) using luminogenic substrate incubated for 1 hr by luminescence based assay
T3 sequence (P21397 whole entry): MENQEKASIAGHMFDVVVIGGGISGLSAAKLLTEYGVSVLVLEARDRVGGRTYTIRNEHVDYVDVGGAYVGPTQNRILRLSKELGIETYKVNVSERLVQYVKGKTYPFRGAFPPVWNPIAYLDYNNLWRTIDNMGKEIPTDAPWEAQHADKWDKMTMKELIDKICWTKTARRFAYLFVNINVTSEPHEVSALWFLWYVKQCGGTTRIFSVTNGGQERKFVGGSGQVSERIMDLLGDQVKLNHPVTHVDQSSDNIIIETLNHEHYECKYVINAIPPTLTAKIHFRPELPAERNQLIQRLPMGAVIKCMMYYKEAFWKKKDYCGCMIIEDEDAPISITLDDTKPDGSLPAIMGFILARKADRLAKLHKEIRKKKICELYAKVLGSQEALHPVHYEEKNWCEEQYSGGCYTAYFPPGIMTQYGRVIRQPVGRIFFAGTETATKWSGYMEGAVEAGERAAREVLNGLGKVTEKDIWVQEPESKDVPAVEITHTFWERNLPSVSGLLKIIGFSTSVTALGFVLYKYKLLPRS

[6] = tested on: RAW264.7; assay: Inhibition of reactive oxygen species formation in mouse RAW264.7 cells infected with Helicobacter pylori; assay type: functional, cell-based
[7] = target: T4, MAOA (amine oxidase [flavin-containing] A) (Homo sapiens, UniProt P21397); assay: Inhibition of MAOA (unknown origin) using luminogenic substrate at 10 uM incubated for 1 hr by luminescence based assay relative to control; details: MAOA enzyme (unknown origin), probe luminogenic substrate
T4 sequence (P21397 whole entry): T3 sequence (P21397 whole entry)

[8] = cells; details: Homo sapiens, MIA PaCa-2, 72 h
Description: Antiproliferative activity against human MiaPaCa cells assessed as reduction in cell growth incubated for 72 hrs by MTS assay

[9] = target: T5, Amine oxidase [flavin-containing] B (Homo sapiens, UniProt P27338); assay: Inhibition of MAOB (unknown origin) using luminogenic substrate incubated for 1 hr by luminescence based assay
T5 sequence (P27338 whole entry): T1 sequence (P27338 whole entry)

[10] = tested on: BXPC-3; assay: cells; details: Homo sapiens, BXPC-3, 72 h
Description: Antiproliferative activity against human BxPC3 cells assessed as reduction in cell growth incubated for 72 hrs by MTS assay

[11] = target: LSD1/CoREST complex (Homo sapiens, UniProt O60341); assay: Inhibition of recombinant LSD1/CoREST (unknown origin) incubated for 30 mins to 4 hrs by fluorescence based assay; assay type: protein-complex assay
[12] = tested on: BXPC-3; assay: Antiproliferative activity against human BxPC3 cells assessed as reduction in cell growth at 10 to 100 uM incubated for 72 hrs by MTS assay relative to control; assay type: functional
[13] = target: T2, Spermine oxidase; assay: Potency index, ratio of MDL72527 IC50 to compound IC50 for SMOX (unknown origin) using spermine as substrate treated with compound 2 mins prior to substrate addition followed by further incubation for 1 hr by HPLC analysis

Chain of Peroxisomal N(1)-acetyl-spermine/spermidine oxidase (Q6QHF9 whole entry): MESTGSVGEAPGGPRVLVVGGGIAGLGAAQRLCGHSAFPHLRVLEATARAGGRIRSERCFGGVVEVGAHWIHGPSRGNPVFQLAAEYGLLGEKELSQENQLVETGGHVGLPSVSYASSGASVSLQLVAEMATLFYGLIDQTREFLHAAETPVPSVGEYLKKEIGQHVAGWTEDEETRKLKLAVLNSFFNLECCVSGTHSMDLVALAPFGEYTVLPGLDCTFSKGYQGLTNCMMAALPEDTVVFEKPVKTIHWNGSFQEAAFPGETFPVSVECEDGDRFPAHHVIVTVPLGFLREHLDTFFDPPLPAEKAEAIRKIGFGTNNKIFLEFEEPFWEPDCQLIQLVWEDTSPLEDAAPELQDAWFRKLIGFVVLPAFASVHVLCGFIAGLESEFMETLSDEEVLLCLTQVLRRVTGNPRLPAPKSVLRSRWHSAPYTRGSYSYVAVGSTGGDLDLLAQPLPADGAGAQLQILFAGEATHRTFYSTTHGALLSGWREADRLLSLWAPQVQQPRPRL
T2 sequence (Q9NWM0 whole entry): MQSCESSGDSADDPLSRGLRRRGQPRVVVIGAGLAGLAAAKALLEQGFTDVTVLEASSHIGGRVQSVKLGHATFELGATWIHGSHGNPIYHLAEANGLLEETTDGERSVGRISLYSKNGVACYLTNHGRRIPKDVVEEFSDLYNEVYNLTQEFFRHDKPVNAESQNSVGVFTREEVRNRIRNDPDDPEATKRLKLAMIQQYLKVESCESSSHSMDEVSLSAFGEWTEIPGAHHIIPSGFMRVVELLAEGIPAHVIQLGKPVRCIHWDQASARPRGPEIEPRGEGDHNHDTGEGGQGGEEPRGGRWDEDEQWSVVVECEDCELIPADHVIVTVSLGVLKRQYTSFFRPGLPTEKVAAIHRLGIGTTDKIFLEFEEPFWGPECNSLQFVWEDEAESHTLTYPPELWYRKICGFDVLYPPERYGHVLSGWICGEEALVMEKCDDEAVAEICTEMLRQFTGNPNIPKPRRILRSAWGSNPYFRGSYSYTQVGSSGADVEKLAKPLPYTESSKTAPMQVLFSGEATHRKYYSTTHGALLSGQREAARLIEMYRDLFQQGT

Row | SMILES | inhibition at 1 h, 10 µM [1] [%] | IC50 [2] [µM] | inhibition [3] [%] | IC50 [4] [µM] | IC50 [5] [µM] | inhibition [6] | inhibition at 1 h, 10 µM [7] [%] | IC50 [8] [µM] | IC50 [9] [µM] | IC50 [10] [µM] | IC50 [11] [µM] | inhibition (INH) [12] [%] | Ratio IC50 [13]
1 | Cc1cc(C)cc(Oc2ccccc2CNc2nc(N)n[nH]2)c1 | 83.4 | > 200 | 0 | > 200 | 91.4 | – | – | – | – | – | – | – | –
2 | Nc1nnc(NCc2c(Cl)cccc2Oc2ccccc2)[nH]1 | 0 | 178 | 28 | – | > 200 | Active | 0 | 2.66 | > 200 | – | – | – | –
3 | Nc1n[nH]c(NCc2ccccc2Oc2ccc(F)cc2)n1 | 40.7 | > 200 | 0 | > 200 | 89.3 | – | – | – | – | – | – | – | –
4 | COc1cc(OC)cc(Oc2ccccc2CNc2nc(N)n[nH]2)c1 | 17.1 | > 200 | 0 | > 200 | > 200 | – | 0 | – | – | – | – | – | –
5 | Nc1n[nH]c(NCc2c(Cl)cccc2Oc2ccc3ccccc3c2)n1 | 0 | 163 | 23.6 | – | > 200 | – | 0 | – | > 200 | – | – | – | –
6 | Cc1cccc(Oc2ccccc2CNc2nc(N)n[nH]2)c1C | 68.6 | > 200 | 0 | > 200 | > 200 | – | 0 | – | – | – | – | – | –
7 | CSc1ccc(Oc2ccccc2CNc2nc(N)n[nH]2)cc1 | 31.7 | > 200 | 0 | > 200 | 38.4 | – | – | – | – | – | – | – | –
8 | Nc1n[nH]c(NCc2ccccc2Oc2ccc3ccccc3c2)n1 | 81.6 | > 200 | 0 | > 200 | 79.2 | – | – | – | – | – | – | – | –
9 | Nc1n[nH]c(NCc2c(Cl)cccc2Oc2cccc3ccccc23)n1 | 7.12 | 148 | 19 | – | > 200 | – | 0 | 30 to 200 | > 200 | > 100 | 0.19 to 0.23 | – | –
10 | Cc1ccc(C(C)C)c(Oc2ccccc2CNc2nc(N)n[nH]2)c1 | 49.7 | > 200 | 13.9 | > 200 | 55.5 | – | – | – | – | – | – | – | –
11 | Nc1ccn([C@@H]2O[C@H](CO)[C@@H](O)C2(F)F)c(=O)n1 [GEMCITABINE] | – | – | – | – | – | – | – | 1.86 | – | 5.71 | – | 30 | –
12 | N[C@@H]1C[C@H]1c1ccccc1.N[C@H]1C[C@@H]1c1ccccc1 | – | – | 0 | – | – | – | – | – | – | – | – | – | –
13 | CC(C)(C)c1ccc(Oc2ccccc2CNc2nc(N)n[nH]2)cc1 | 32.3 | > 200 | 0 | > 200 | 61.5 | – | – | – | – | – | – | – | –
14 | Nc1n[nH]c(NCc2ccccc2Oc2ccc(-c3ccccc3)cc2)n1 | 26.4 | 25.7 | 25.7 | > 200 | 50 | – | – | 30 to 200 | – | 61.5 | – | – | 3.5
15 | C=C=CCNCCCCNCC=C=C | 0 | 89.7 | 4.8 | – | > 200 | – | 0 | – | > 200 | – | > 100 | – | –
16 | Nc1n[nH]c(NCc2ccccc2Oc2ccc(Br)cc2C(F)(F)F)n1 | 90.1 | 121 | 0 | > 200 | 3 | – | – | 30 to 200 | – | > 100 | – | – | –
17 | Nc1n[nH]c(NCc2ccccc2Oc2ccccc2)n1 | 18.8 | > 200 | 0 | > 200 | 50.2 | – | – | – | – | – | – | – | –
